Measured values as given in ChEMBL document CHEMBL4028862 (J Med Chem, 2017).
The source made the active and inactive calls. No cut-off for these calls is given here.

Tests used:
[1] = molecular target: T1, Acid-sensing ion channel 1 (Rattus norvegicus, UniProt P55926); assay: Inhibition of rat ASIC1a receptor expressed in xenopus lavies oocytes assessed as inhibition of pH 6.7-gated currents by two electrode voltage clamp; type: cell-based
T1 sequence (P55926 whole entry): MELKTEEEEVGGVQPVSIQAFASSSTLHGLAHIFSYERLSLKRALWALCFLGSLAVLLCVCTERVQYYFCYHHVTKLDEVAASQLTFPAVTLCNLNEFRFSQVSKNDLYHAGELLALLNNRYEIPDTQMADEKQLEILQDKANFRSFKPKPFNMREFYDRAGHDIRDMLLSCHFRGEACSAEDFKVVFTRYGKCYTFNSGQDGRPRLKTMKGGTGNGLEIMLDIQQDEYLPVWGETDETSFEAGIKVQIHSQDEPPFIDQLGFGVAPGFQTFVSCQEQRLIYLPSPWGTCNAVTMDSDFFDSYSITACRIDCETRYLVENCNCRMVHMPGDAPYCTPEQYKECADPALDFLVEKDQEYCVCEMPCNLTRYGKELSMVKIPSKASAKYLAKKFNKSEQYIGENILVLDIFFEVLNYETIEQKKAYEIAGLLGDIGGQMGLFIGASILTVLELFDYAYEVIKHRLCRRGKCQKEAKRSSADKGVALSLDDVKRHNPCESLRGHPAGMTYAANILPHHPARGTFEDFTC

[2] = molecular target: T2, Acid-sensing ion channel 3 (Rattus norvegicus, UniProt O35240); assay: Inhibition of rat ASIC3 receptor expressed in xenopus lavies oocytes assessed as inhibition of pH 6.4-gated currents by two electrode voltage clamp; type: cell-based
T2 sequence (O35240 whole entry): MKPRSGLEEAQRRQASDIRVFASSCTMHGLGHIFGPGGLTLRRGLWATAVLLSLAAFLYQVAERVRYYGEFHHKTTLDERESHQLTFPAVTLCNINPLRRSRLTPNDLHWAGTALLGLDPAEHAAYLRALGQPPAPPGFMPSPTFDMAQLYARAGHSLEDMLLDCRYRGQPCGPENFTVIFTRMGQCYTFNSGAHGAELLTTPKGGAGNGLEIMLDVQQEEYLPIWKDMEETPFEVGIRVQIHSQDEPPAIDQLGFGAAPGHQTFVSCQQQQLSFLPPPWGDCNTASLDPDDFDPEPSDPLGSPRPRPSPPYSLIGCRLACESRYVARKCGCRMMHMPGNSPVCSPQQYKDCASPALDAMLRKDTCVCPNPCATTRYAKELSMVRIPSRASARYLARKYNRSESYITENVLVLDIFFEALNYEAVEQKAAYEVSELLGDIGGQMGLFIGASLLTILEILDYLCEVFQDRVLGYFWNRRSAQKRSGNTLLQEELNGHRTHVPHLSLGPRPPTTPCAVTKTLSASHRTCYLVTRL

[3] = molecular target: T3, Acid-sensing ion channel 1 (Rattus norvegicus) (UniProt P55926); assay: Inhibition of rat ASIC1a receptor expressed in xenopus lavies oocytes at 0.03 to 3 mM at greater than pH 5 by two electrode voltage clamp; type: cell-based
T3 sequence (whole entry): T1 sequence (P55926 whole entry)

[4] = molecular target: T3, Acid-sensing ion channel 1 (Rattus norvegicus); assay: Inhibition of rat ASIC1a receptor expressed in xenopus lavies oocytes at 0.1 to 3 mM at greater than pH 5 by two electrode voltage clamp; type: cell-based
[5] = Solubility of the compound in buffer at less than pH 5; type: physicochemical
[6] = molecular target: T3, Acid-sensing ion channel 1 (Rattus norvegicus)
cells = conditions: Rattus norvegicus
[7] = Solubility of the compound in buffer at pH 4; type: physicochemical

Row | SMILES | IC50 [1] | IC50 [2] | other results
1 | Cc1ccc(C(C)C(=O)O)cc1 (centres undefined) | > 10000 µM | 708 µM | –
2 | CC(C)Cc1ccc(C(F)C(=O)O)cc1 (centres undefined) | 955 µM | 891 µM | –
3 | CC(C)Cc1ccc(C(=O)O)cc1 | 417 µM | 302 µM | inhibition [3]: Active
4 | CC(C)Cc1ccc(C(C)[N+](=O)[O-])cc1 (centres undefined) | – | – | inhibition [4]: inactive
5 | CC(C(=O)O)c1ccc(-c2ccccc2)c(F)c1 (racemic) [FLURBIPROFEN] | 170 µM | 229 µM | –
6 | CC(C)Cc1ccc(C(C)C(=O)O)cc1 (racemic) [IBUPROFEN] | – | – | solubility [5]: Insoluble; pH50 [6]: 6.6; IC50 (cells): 3000 µM; IC50 (cells; read-out: pIC50 (converted)): 3160 µM; solubility [7]: Insoluble
7 | CCC(C(=O)O)c1ccc(CC(C)C)cc1 (centres undefined) [BUTIBUFEN] | 182 µM | 288 µM | –
8 | CC(C)Cc1ccc(CC(=O)O)cc1 [IBUFENAC] | 1020 µM | 417 µM | –
